Entries after “also recorded” stand apart in the source; their conditions may differ.
How the values were obtained:
[1] = system: THP-1 cells; test: Chemotaxis assay in modified Boyden chambers; assay type: cell-based, human; conditions: for chemotactic response of THP-1 cells: Boyden chamber, 90 minutes, migration as percent of control, over the concentration range analyzed; for concentration giving maximal chemotactic response: THP-1 cells, FIG. 4 panels A and C; for concentration at which very potent chemotactic activity is seen: human THP-1 monocytoid cells (and murine LB6 fibroblastic cells)
Description: FIG. 3. […] For each set of experiments, migration toward the assay medium served as control (random cell migration) and is referred to as 100% migration. All experiments were performed in triplicate; the number of cells counted per high power field (ten fields for each condition) is expressed as percent of the control values. The proteins were purified as described in the Methods section. Data points represent the mean of three independent experiments (+SEM). The constructs used are depicted in FIG. 2.
Chemotaxis analysis were performed using modified Boyden chambers containing polyvinylpyrrolidone polycarbonate filters (13 mm diameter, […]) coated with collagen type I ([…] in PBS pH 7.4). The coated filters were washed with medium supplemented with 0.2% bovine serum albumin (BSA) and then placed in the Boyden apparatus. After acid wash, 2×10^5 THP-1 cells suspended in serum-free medium were added above the filter in the Boyden chamber. Purified mutants were diluted in serum-free medium at the indicated concentrations and added below the filter in the lower chamber. The chambers were incubated in a humidified incubafor at 37° C. in 5% CO2 in air for 90 minutes. Filters were removed, the upper surface scraped free of cells, fixed in methanol and stained with crystal violet. For each set of experiments, migration toward the assay medium served as control (random cell migration) and is referred to as 100% migration. All experiments were performed in triplicate; data are reported as number of cells counted for high power field (ten fields for each condition) and expressed as percentage of the control values. Data points represent the mean of three independent experiments (+SEM). When cells of the fibroblast-type or cancer cells were employed for the assay, the time required for migration was higher and the Boyden chamber were usually incubated overnight.

[2] = system: p56/p59hck; test: p56/p59hck immunoprecipitation and in vitro kinase assay after treatment of THP-1 cells; assay type: cell-based, human
Description: FIG. 5. In this figure, the stimulating effect of peptide 1 on the activity of Hck kinase of THP-1 cells is shown. THP-1 cells were metabolically labelled with [35S]-TransLabel, acid washed, and either mock-treated or treated with 0.1 nM peptide 1 (AVTYSRSRYLEC, (SEQ ID NO:1)) for the indicated time at 37° C. Radiolabelled cell lysates were immunoprecipitated (Resnati et al., 1996) using an affinity-purified rabbit polyclonal anti-p56/p59hck antibody.
(A) An aliquot from each immunoprecipitate was directly analyzed by SDS-PAGE to control that equal amount of p56/p59hck were present during in vitro kinase assay.
(B) The remainder of each immunoprecipitate was subjected to in vitro kinase assay in presence of […] of [g-32P]ATP (˜3000 Ci/mmol, Amersham) and […] rabbit muscle enolase for 5 minutes at room temperature. Eluates were thus analyzed by SDS-PAGE autobiography (7.5% acrylamide).
The mixture of chymotrypsin fragments of suPAR, like the uPA/uPAR interaction, induces chemotaxis by transiently activating the p56/p59hck protein kinase (Resnati et al., 1996). If human uPAR-related peptides containing the SRSRY (SEQ ID NO:7) motif induce a chemotactic response on THP-1 cells though the same mechanism exploited by the uPA/uPAR interaction (i.e. by binding to the unidentified adaptor), they should also activate p56/p59hck. THP-1 cells were metabolically labelled with [35S]-TransLabel, acid washed, and either mock-treated or treated with 0.1 nM peptide 1 (AVTYSRSRYLEC (SEQ ID NO:1)) for the indicated time at 37° C. Radiolabelled cell lysates were immunoprecipitated (Resnati et al.,1996) using an affinity-purified rabbit polyclonal anti-p56/p59hck antibody. An aliquot from each immunoprecipitate was directly analyzed by SDS-PAGE to control that equal amount of p56/p59hck were present during in vitro kinase assay (FIG. 5, panel A). The remainder of each immunoprecipitate was subjected to in vitro kinase assay in presence of […] of [g-32P)]ATP (˜3000 Ci/mmol, Amersham) and […] rabbit muscle enolase (substrate) for 5 minutes at room temperature. Eluates were thus analyzed by SDS-PAGE autobiography (7.5% acrylamide). […] The effect was very rapid, since p56/pS9hck stimulation was already- evident after 2 minutes, reached a maximum after […] and returned to the basal level 30 minutes after the addition of the peptide. No effect on p56/p59hck activity was observed when 0.1 nM of the corresponding scrambled peptide was used in the assay (data not shown). The time-course of the effect is identical to that observed with the addition of ATF or of chymotryptic uPAR fragments to THP-1 cells and reported previously (Resnati et al., 1996).

[3] = system: cells binding to D1(1-92)- or peptide-coated plates; test: Panning / cell adhesion on coated plastic plates; assay type: cell-based; conditions: for adhesion of mammalian cells to plastic plates coated with the substance: bacterial-grade plastic dishes coated with the substance; for inhibition of adhesion of cells onto D1(1-92): plates coated with D1(1-92)
Description: However, when those plates are coated with peptide 1 or 2 (or domain D1-1-92) or with recombinant forms of these peptides, they adhere because they express on their surface specific D1(1-92)-binding proteins. The adhesion can be measured.
As a positive control (i.e. to set up the technique), cells (106) exposing a high number of uPAR molecules are used and the panning is carried out on plates coated with a specific anti-uPAR antibody. As a negative control, the same cells but now not expressing uPAR are employed. The cells employed as negative controls are LB6, 32D, 3T3 fibroblasts, B-lymphoid cell lines and others. As positive controls, THP-1 cells, LB6/uPAR, 32D/uPAR and other expressing cell lines are employed.
For the screening assay, the same cells employed as negative controls (106) are used, and the plates are coated with domain D1(1-92) or domain D1(1-87) (control). The ability of the cells to bind to the plates is tested after 30-300 minutes incubation at 37° C. by microscopic inspection, or by staining the plates with Coomassie Blue. The same can be done using different techniques.
The ability of peptides 1- or 2-coated plates to specifically bind the THP-1 cells is the basis for the screening technique, as any compound capable of inhibiting this binding is a potential antiinflammatory agent, inhibiting chemotaxis. […] Such compounds, therefore, can be tested as inhibitors of chemotaxis, employing the methods outlined in examples 1-3. Coating can also be carried out with other recombinant forms of the SRSRY (SEQ ID NO:7) sequence in which the epitope is synthesized in fusion with other proteins. Suitable proteins are ferritin (Sidoli et al. (1993)), thioredoxin, GST, beta galactosidase, human serum albumin.

[4] = target: uPAR (Homo sapiens, UniProt Q03405); conditions: read-out: affinity of binding to uPAR; cited from earlier work
uPAR, sequence (Q03405 23-305): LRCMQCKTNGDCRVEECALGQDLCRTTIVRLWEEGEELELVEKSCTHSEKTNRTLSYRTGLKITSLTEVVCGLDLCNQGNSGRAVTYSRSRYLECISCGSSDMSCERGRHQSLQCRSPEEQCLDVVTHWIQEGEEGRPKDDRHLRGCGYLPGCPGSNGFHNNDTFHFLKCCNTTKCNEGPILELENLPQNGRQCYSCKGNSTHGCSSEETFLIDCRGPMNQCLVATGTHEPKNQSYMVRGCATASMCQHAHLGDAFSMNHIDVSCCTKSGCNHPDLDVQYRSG

Row | Substance | chemotactic response of THP-1 cells [1] | concentration giving maximal chemotactic response [1] [pM] | concentration at which very potent chemotactic activity is seen [1] [pM] | adhesion of mammalian cells to plastic plates coated with the substance [3] | inhibition of adhesion of cells onto D1(1-92) [3] | also measured
1 | AVTYSRSRYLEC [peptide 1] | dose-dependent chemotactic effect; also recorded: very potent activity | 0.1 | 0.1 | adhere | inhibit adhesion | time at which p56/p59hck stimulation is already evident ([2]; 0.1 nM peptide): 2 min; autophosphorylation of p56/p59hck ([2]; 0.1 nM peptide, 37° C.): increase; phosphorylation of the exogenous substrate (rabbit muscle enolase) ([2]; 0.1 nM peptide, 37° C.): increase; time of return of p56/p59hck activity to the basal level ([2]; 0.1 nM peptide, after addition of the peptide): 30 min
2 | YTARLWGGTLLT [peptide 3, reference compound] | no effect on cell migration | – | – | – | – | –
3 | TLVEYYSRASCR [reference compound] | no effect on cell migration | – | – | – | cannot | chemotactic response of THP-1 cells ([1]; listed as peptide-1 scrambled): do not; effect on p56/p59hck activity ([2]; 0.1 nM (data not shown)): No effect
4 | vitronectin: protein bound by uPAR domains D2 and D3 | – | – | – | – | – | Kd [4]: 0.01 to 0.02 µM
5 | SRSRYLEC [peptide 2] | dose-dependent chemotactic effect; also recorded: very potent activity | 0.1 | 0.1 | adhere | inhibit adhesion | –

— patent US6462170B1, “UPAR mimicking peptide” (Fondazione Centro San Raffaele del Monte Tabor, priority 1997, dated 2002)
